Entries after “also recorded” stand apart in the source; their conditions may differ.
What was measured:
[1] = tested on: two models of LID (unilateral 6-OHDA model and aphakia mouse line); test: meta-analysis of dyskinesia measurements across two models of LID, ratio over L-Dopa only controls; assay type: in vivo, mice; conditions: for effect on dyskinesia (words): 6-OHDA model and aphakia mouse line, compared to controls; for reduction in expression of established dyskinesia over L-Dopa only controls: acute stimulation of Smo, combined across models
Excerpt: Meta-analysis of dyskinesia measurements across two models of LID and three structurally distinct compounds (cyclopamine, SAG, purmorphamine):. A ratiometric expression of LID after treatment with Smo antagonist or agonists over L-Dopa only treated controls allows applicant to present results combined across two distinct models of dyskinesia and three distinct compounds. Setting dyskinesia scores observed in L-Dopa only treated controls as 1 (FIG. 11: dotted line and white bar), we find that inhibition of Smo by cyclopamine results in a 70% INCREASE of dyskinesia (FIG. 11: black bar labeled “a”). Conversely, acute stimulation of Smo by SAG leads to a roughly 2 fold REDUCTION in the expression of established dyskinesia (FIG. 11, black bar labeled “b”) and semi chronic daily dosing with SAG together with L-Dopa (“adjuvants” strategy) leads to about 70% reduction in the formation and display of LIDs (FIG. 11, black bar labeled “c” Consistent and similar to the effect of SAGthe acute stimulation of Smo with Purmorphamine leads to a roughly 2 fold REDUCTION in the display of established LID (FIG. 11, black bar labeled “d”).

[2] = tested on: aphakia mouse line, a genetic model of LID; test: aphakia mouse model of LID, three paw dyskinesia scoring; assay type: in vivo, mice; conditions: for effect on AIMs induced by daily L-Dopa: aphakia mouse line
Excerpt: Inhibition of Smo by cyclopamine in thegenetic “aphakia ” model of dyskinesia INCREASES LIDs. Analogous to the use of the unilateral 6-OHDA model of LID, we tested whether Shh signaling effects the formation and display of LID in an independent, genetic model, the well-studied Aphakia mouse model. […] The hypo-dopaminergic state of these animals is thought to be similar to the dopaminergic state of Parkinson's disease patients. It is well established that these mice readily develop LID upon semi chronic dosing with L-Dopa. […] Daily systemic injections of L-Dopa (20 mg/kg, IP) results in progressive display of 3 paw dyskinesia over 7 days (FIG. 3, white bars. Co-injection of cyclopamine (5 mg/kg, IP) together with L-Dopa (20 mg/kg, IP) on day 8 results in a roughly 3 fold increase in 3-paw dyskinesia compared to day 7 (FIG. 3, see d8, black bar). Further daily co-injections of cyclopamine together with L-Dopa (5 mg/kg, IP and 20 mg/kg, IP, resp.) results in further increases in dyskinesia scores reaching 7 fold the score obtained after 7 days of L-Dopa only dosing (FIG. 3, see d11, black bar compared to d7, white bar).
Stimulation of Smo by SAG in a genetic model of dyskinesia DECREASES LIDs. Analogous to testing the effect of cyclopamine, we used the aphakia mouse line to determine whether stimulation of Shh signaling might reduce the display of established LID. We injected daily for 28 days L-Dopa (20 mg/kg; IP). On day 29 we co-injected SAG (20 mg/kg, IP) together with L-Dopa (20 mg/kg, IP). We scored 3 paw dyskinesia at day 28 (FIG. 9: white bar) and day 29 (FIG. 9: black bar) and find a roughly 2 fold reduction in dyskinesia upon SAG dosing.
Movement disorders: official journal of the Movement Disorder Society, 2015. 30(6): p. 788-95.). Analogous to testing the effects of the stimulation of Smo by SAG in the aphakia mouse model of dyskinesia described above we injected daily L-Dopa (25 mg/kg, IP) for 21 days. All animals developed robust dyskinesia scores. On day 21 animals were randomly assigned into 4 groups.

Parkinson's Patients = conditions: Pahwa et al. 2015; cited from earlier work
[3] = tested on: unilateral 6-OHDA model of LID; test: unilateral 6-OHDA model of L-Dopa induced dyskinesia, abnormal induced movements (AIMs) scoring; assay type: in vivo, mice
Excerpt: (§1) Assessing dopamine hyper-sensitivity in the unilateral 6-OHDA model of LID. The well-established unilateral 6-OHDA model of LIDs was used in which the injection of the neurotoxin results in unilateral DA hypersensitivity due to a greater than 80% DA neuron degeneration, and subsequent dopamine hypersensitivity. Two weeks after 6-OHDA injection, the degree of functional deficits are quantified by assessing contralateral paw use in a “cylinder test” (FIG. 1). In untreated, 6-OHDA injected animals contralateral paw use during rearing at the glass wall is reduced from random (50%, dotted line) due to the dopaminergic lesion and resulting reduced dopamine secretion (FIG. 1, white bars). Upon dopamine substitution by a single dose of L-Dopa contralateral paw use is increased above random (50% dotted line) due to dopamine hypersensitivity that developed in response to reduced dopamine levels (FIG. 1 black bars).
Inhibition of Smo by cyclopamine INCREASES LIDs After the functional assessment of dopaminergic denervation in the 6-OHDA model of LIDS, LIDs are induced by daily injections of L-Dopa (5 mg/kg, IP) for 13 days followed by quantification of dyskinesia. Abnormal movements are assessed for 1 min every 20 min, over a period of 120 min immediately after L-DOPA administration coinciding with the peak of L-Dopa dependent DA release. Abnormal induced movements (AIMs), clearly distinct from natural stereotyped behaviors (i.e., grooming, sniffing, rearing, and gnawing), are classified following a well-established scheme in the field of dyskinesia research into four different subtypes: locomotive (tight contralateral turns), axial (contralateral dystonic posture of the neck and upper body), limb (jerky and fluttering movements of the limb contralateral to the side of the lesion), and orofacial (vacuous jaw movements and tongue protrusions) (Sebastianutto, I., N. Maslava, C. R. Hopkins, and M. A. Cenci, Validation of an improved scale for rating l-DOPA-induced dyskinesia in the mouse and effects of specific dopamine receptor antagonists. Neurobiology of disease, 2016. 96: p. 156-170.). The co-administration of the Smo antagonist cyclopamine (5 mg/kg, IP) together with L-Dopa (5mg/kg, IP) at day 14 results in an approximately 80% increase in LIDs (FIG. 2, black bar) compared to L-Dopa alone (FIG. 2, white bar).
Stimulation of Smo by SAG DECREASES LIDs. Analogous to the experiments testing the inhibition of Smo, the unilateral 6-OHDA model of LIDs was used to test the effect of activating Smo signaling by the agonist SAG (FIG. 5). Two weeks after 6-OHDA injection, LIDs are induced by daily injections of L-Dopa (5 mg/kg, IP) for 16 days. A gradual increase in the display of dyskinesia was observed from day 4 to day 16 (FIG. 5, white bars). Consistent with the hypothesis and conversely to the facilitation of LIDs by the inhibition of Smo signaling, applicant found about a twofold REDUCTION in the display of LIDs upon the co-administration of a L-Dopa dose (5 mg/kg, […] 5, black bar).
Stimulation of Smo by Purmorphamine DECREASES LIDs. Analogous to the experiments testing the inhibition of Smo, the unilateral 6-OHDA model of LIDs was used to test the effect of activating Smo signaling by the agonist Purmorphamine (PUR). Two weeks after 6-OHDA injection, LIDs are induced by daily injections of L-Dopa (5 mg/kg, IP) for 14 days. A gradual increase in the display of dyskinesia was observed from day 4 to day 11 (FIG. 6, white bars). Consistent with the hypothesis and similar to the results with stimulating Smo with SAG and conversely to the facilitation of LIDs by the inhibition of Smo signaling, applicant finds about 40% REDUCTION in the display of LIDs upon the co-administration of a L-Dopa “challenge” dose (20 mg/kg; IP, i.e. 4×the regular dose) together with the Smo agonist Purmorphamine (15 mg/kg, IP) on day 15 (FIG. 6, black bar). […]

[4] = tested on: Shh-nLacZ^C/C/Dat-Cre mice; test: L-Dopa induced dyskinesia in mice with genetic ablation of Shh from dopamine neurons; assay type: in vivo
[5] = tested on: unilateral 6-OHDA lesioned animals; test: cylinder test of contralateral paw use after unilateral 6-OHDA lesion; assay type: in vivo, mice; conditions: single dose L-Dopa 5 mg/kg IP; random = 50%
Description: FIG. 1 depicts assessment of 6-OHDA induced dopaminergic lesion. All animals of cohorts A and B were lesioned unilaterally by stereotactic injection of 6-OHDA into the dorso-lateral striatum. White bars: saline injected, black bars: L-dopa (5 mg/kg, IP) injected. Unilateral striatal 6-OHDA injection results in […] dopamine hypersensitivity. (**=p<0.001, ***=p<0.0001, t-test; n=9-11/treatment group; mean±SEM);
as §1

CC1=C2C[C@H]3[C@@H](CC=C4C[C@@H](O)CC[C@@]43C)[C@@H]2CC[C@]12O[C@@H]1C[C@H](C)CN[C@H]1[C@H]2C [cyclopamine]
effect on dyskinesia (words) [1]: more rapid induction and stronger expression of dyskinesia | effect on dyskinesia (words) ([1]; listed as Cyclopamine): increases dyskinesia | increase of dyskinesia over L-Dopa only controls ([1]; combined across two models, controls set to 1): 70% | effect on AIMs induced by daily L-Dopa [2]: increases abnormal induced movements | increase in 3-paw dyskinesia ([2]; cyclopamine 5 mg/kg IP with L-Dopa 20 mg/kg IP on day 8, compared to day 7): roughly 3 fold | dyskinesia score relative to 7 days of L-Dopa only dosing ([2]; daily cyclopamine 5 mg/kg IP with L-Dopa 20 mg/kg IP, d11 compared to d7): 7 fold

NC12CC3CC(CC(C3)C1)C2 [Amantadine]
inhibition of dyskinesia (Parkinson's Patients): 23% | reduction of LID ([2]; amantadine 40 mg/kg IP with L-Dopa 25 mg/kg IP on day 21, did not reach significance): roughly 30%

CNC1CCC(N(Cc2cccc(-c3ccncc3)c2)C(=O)c2sc3ccccc3c2Cl)CC1 (stereo not shown) [SAG]
LID scores after SAG wash-out ([3]; L-Dopa 5 mg/kg IP daily without SAG, d16 to d34, after 14 days of L-Dopa/SAG): indistinguishable from control groups | effect of chronic dosing with SAG together with L-Dopa on AIMs ([3]; SAG as adjuvant to daily L-Dopa): reversible, dose dependent build-up of a reduction of abnormal induced movements; also recorded: build-up of a reduction of abnormal induced movements over 7 days | reduction of dyskinesia ([3]; daily SAG 0.8 mg/kg IP with L-Dopa 5 mg/kg IP, day 12): 45% | reduction of dyskinesia ([3]; daily SAG 2.5 mg/kg with L-Dopa 5 mg/kg IP, 4 days of dosing): 50% | reduction of dyskinesia ([3]; daily SAG 7 mg/kg IP with L-Dopa 5 mg/kg IP, day 4): about 50% | reduction of dyskinesia ([3]; daily SAG 7 mg/kg IP with L-Dopa 5 mg/kg IP, day 14): about 80% | reduction of AIMS scores over the control group ([3]; daily SAG 10 mg/kg IP with L-Dopa 5 mg/kg IP for 14 days, day 14): greater than 2 fold | reduction in LIDs compared to controls ([3]; within subject escalation, SAG 15 mg/kg IP, day 51, L-Dopa 20 mg/kg IP): greater than 2 fold | reduction of dyskinesia score compared to day 20 ([4]; single injection SAG 20 mg/kg IP with L-Dopa on day 22, ratio mutants over controls): about 10 fold | effect on dyskinesia (words) [1]: decrease dyskinesia; also recorded: delayed and weaker/blunted induction and reduced expression of dyskinesia | reduction in expression of established dyskinesia over L-Dopa only controls [1]: roughly 2 fold | reduction in the formation and display of LIDs over L-Dopa only controls ([1]; semi chronic daily dosing with SAG together with L-Dopa): about 70% | reduction in 3 paw dyskinesia ([2]; SAG 20 mg/kg IP with L-Dopa 20 mg/kg IP on day 29, vs day 28): roughly 2 fold | reduction in the display of LID ([2]; SAG 20 mg/kg IP with L-Dopa 25 mg/kg IP on day 21, compared to controls): 2 fold | effect on AIMs induced by daily L-Dopa [2]: decreases abnormal induced movements

c1ccc2c(Oc3nc(Nc4ccc(N5CCOCC5)cc4)c4ncn(C5CCCCC5)c4n3)cccc2c1 [Purmorphamine]
reduction in the display of LIDs ([3]; Purmorphamine 15 mg/kg IP with L-Dopa challenge dose 20 mg/kg IP on day 15): about 40% | reduction of AIMs ([3]; single dose Purmorphamine 15 mg/kg IP co-injected with L-Dopa 20 mg/kg IP after daily L-Dopa 5 mg/kg IP): 2 fold | effect on dyskinesia (words) [1]: decrease dyskinesia | effect on dyskinesia (words) ([1]; listed as purmorphamine): delayed and weaker/blunted induction and reduced expression of dyskinesia | reduction in expression of established dyskinesia over L-Dopa only controls [1]: roughly 2 fold

N[C@@H](Cc1ccc(O)c(O)c1)C(=O)O [L-Dopa]
increase in LID scores ([3]; daily L-Dopa ramped up to 20 mg/kg IP, day 34 compared to day 27): 3 fold | formation of LID ([4]; daily L-Dopa 10 mg/kg IP, 16 days, mutants, not in litter controls): formation of LID over time | contralateral paw use during rearing [5]: > 50%

Source: US20170224643A1, “METHOD FOR AVOIDING OR INHIBITION OF DYSKINESIA” (Research Foundation of the City University of New York, priority 2016, published 2017)
